From patent US12421272B2, “Artificial nucleic acid, production method therefor, and use thereof” (SYSMEX CORPORATION, priority 2019, dated 2025) come the findings set out here.

Where “and” joins values, the source holds several entries; their conditions need not be identical. Equal entries are not always repeated.

Common to all, as to type: binding
The test system of data set [1] is Target double-stranded DNA (DNA-1), 203-bp PCR product from pBR322 plasmid. Description: Strand invasion in the absence of SSB, gel shift assay. As to conditions: no SSB. The text has this: (§1) Target double-stranded DNA molecules are as follows. • (DNA-1) A 203-bp PCR product produced using pBR322 plasmid (commercially available product) as a template (SEQ ID NOs: 23 and 24). • (DNA-2) A 203-bp PCR product produced using artificial gene T1825G (commercially available product) based on pBR322 plasmid as a template. • (DNA-3) A 203-bp PCR product produced using artificial gene T1825C (commercially available product) based on pBR322 plasmid as a template. • (DNA-4) A 203-bp PCR product produced using artificial gene T1825A (commercially available product) based on pBR322 plasmid as a template.
The reaction was carried out using a thermal cycler (StepOnePlus, Applied Biosystems), in which each of the sample solutions was cooled from 94° C. to 54° C. at a cooling rate of 2° C./30 seconds or was kept at 37° C. for a certain period (24 hours, 48 hours).
The condition that the sample solution was cooled from 94° C. to 54° C. at a cooling rate of 2° C./30 seconds was a condition where a target double-stranded DNA (in this case, a 203-bp PCR product) can be converted to a single strand by the action of a heat energy and strand invasion can be caused by cooling slowly. Therefore, the condition simulated the use in a gene analysis technique.
The condition that temperature is kept at 37° C. for a certain period simulated an in vivo reaction, and therefore simulated the use in a nucleic acid medicine or genome edition.
The same procedures as in the step (3) above were carried out. In this experiment, only the staining using GelGreen (fluorescence staining) was carried out.
The reaction was carried out using a thermal cycler (StepOnePlus, Applied Biosystems), in which each of the sample solutions was cooled from 94° C. to 54° C. at a cooling rate of 2° C./30 seconds.
In general terms: A gel shift assay detects complexes by their altered migration in electrophoresis.

For data set [2] the test system is unchanged. In words: Strand invasion in the presence of SSB, gel shift assay. As to conditions: SSB 6 μM, oligonucleotide 200 nM, DNA-1 30 nM, 37° C. for 120, 60 or 30 minutes.
Source text: as §1
Each of the sample solutions was reacted at 37° C. for 120 minutes, 60 minutes, or 30 minutes using a thermal cycler (StepOnePlus, Applied Biosystems).
After the completion of the reaction, two gels respectively having the sample solutions applied thereon prepared, and PAGE (Poly-Acrylamide Gel Electrophoresis) was carried out on the gels simultaneously under the following conditions. […]
After the completion of the electrophoresis, one of the gel was subjected to fluorescence staining (GelGreen Nucleic Acid Stain 10,000×, Biotium) for staining a nucleic acid, and the other gel was subjected to silver staining (EzStain Silver, ATTO corporation) for staining a nucleic acid and a protein simultaneously. […]

In data set [3] the test system is single-stranded DNA (5′-d(AGCAAAAAACGC)-3′; SEQ ID NO: 6). Description: Melting temperature (Tm), capability of forming double strand with single-stranded DNA. The following applies: sense strand 5′-d(AGCAAAAAACGC)-3′; 100 nM NaCl, 10 mM sodium phosphate buffer (pH 7.2), 4 μM of each strand; 0.5° C./min.
The subject of data set [4] is single-stranded RNA (5′-r(AGCAAAAAACGC)-3′; SEQ ID NO: 7). As to conditions: pH 7.2.

With “PNA20: PNA 20-mer H-(Lys)ggcatgttcatcatcagtaa(Lys)-NH2 (GGCATGTTCATCATCAGTAA; all peptide nucleic acid (PNA); Lys residue at N- and C-terminus, C-terminal amide)”, the “occurrence of strand invasion” value in data set [1] (oligonucleotide 100 nM (3.3 equivalents), DNA-1 30 nM, cooled from 94° C. to 54° C. or left at 37° C.) is recorded as “the occurrence of strand invasion was not confirmed”; in data set [2], “observed”. Further, the “occurrence of strand invasion (comparison of strand invasion functionality)” value in data set [1] (oligonucleotide 100 nM, DNA-1 30 nM, cooled from 94° C. to 54° C. or kept at 37° C. (24 hours, 48 hours)) is on record as “the occurrence of strand invasion was not observed”. In addition, the “occurrence of strand invasion into the sequence for wild-type” value in data set [1] (oligonucleotide 200 nM, DNA-1 15 nM, cooled from 94° C. to 54° C. or kept at 37° C. (24 hours, 48 hours)) is listed as “did not cause strand invasion”.
With “5′-d(GCGTTTTTTGCT)-3′: unmodified DNA antisense strand, SEQ ID NO: 5 (unmodified DNA)”, the Tm in data set [3] was 52 °C; in data set [4] it was 48 °C and 52 °C.
